Test results reported in US5441883A, “A3 adenosine receptor, DNA, and uses” (priority 1993, dated 1995).
Read-outs that look alike come from different tables or passages of the source.

Assays:
A3 adenosine receptor [1] = target: T1, A3 adenosine receptor (Rattus norvegicus, UniProt P28647); experiment: biochemical; type: binding; conditions: for ability to compete with [125I]APNEA for A3 receptor binding: 100 μM
T1 sequence (P28647 1-320): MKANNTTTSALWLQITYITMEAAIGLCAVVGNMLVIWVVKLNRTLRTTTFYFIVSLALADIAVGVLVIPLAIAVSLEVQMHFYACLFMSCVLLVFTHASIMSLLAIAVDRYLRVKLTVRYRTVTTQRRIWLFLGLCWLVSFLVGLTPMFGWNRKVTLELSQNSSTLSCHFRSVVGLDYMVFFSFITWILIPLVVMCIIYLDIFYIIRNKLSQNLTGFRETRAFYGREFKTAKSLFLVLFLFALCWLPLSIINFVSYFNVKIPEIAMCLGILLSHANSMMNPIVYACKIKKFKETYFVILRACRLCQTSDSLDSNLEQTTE
Procedure: FIGS. 4A and 4B illustrates competitive binding assays using stably transfected CHO cell membrane preparations.
(§1) Cell membranes were prepared as follows. COS-7 cells (transient expressors) were harvested 48 hrs after transfection, whereas CHO cells (stable expressors) were grown to confluence in 150 mm plates. Cells were washed twice with ice-cold HOB buffer [15 mM Tris-HCl (pH 7.4), 5 mM MgCl2, 1 mM EDTA] and scraped off plates with a rubber policeman. Cells were then collected by centrifugation at 1,200 rpm (xx g), resuspended in HOB buffer, transferred to a Dounce homogenizer on ice, and homogenized for 20 sec with a CorTarge homogenizer (Eberbach Inc., Ann Arbor, Mich.) at the #3 speed setting. The homogenate was then centrifuged at 2,000 rpm (xx g) for 10 min at 4° C. The supernatant was saved and the pellet resuspended in HOB buffer and subjected to a second round of homogenation. The second homogenate was centrifuged at 2000 rpm (xx g) for 10 min and the pellet was discarded. Supernatants were pooled and centrifuged at 34,000 rpm (xx g) for 45 min. These crude membrane pellets were resuspended in TEM buffer [50 mM Tris-HCl (pH 7.4), 5 mM MgCl2, 1 mM EDTA]. Adenosine deaminase (Sigma, St Louis, Mo.) was added to the membrane suspensions to a concentration of 2 Units/ml and incubated at 37° C. for 30 min. The membrane suspension was subsequently recentrifuged at 34,000 rpm (xx g) for 45 min. The resulting pellet was resuspended in TEM buffer at a protein concentration of about 1 mg/ml and stored in small aliquots at -70° C. The protein concentration was measured according to the method of Lowry et al. (1954, J. Biol. Chem. 207: 1-XXX) using bovine serum albumin as a standard.
Radioligand binding assays were carried out in duplicate in 500 μl of a solution containing (at final concentrations) 50 mM Tris-HCl (pH 7.4), 5 mM MgCl2, 1 mM EDTA, 0.025 % ascorbic acid, radioligands, and appropriate drugs. […] ([aH]XAC), [^3 H]-labeled 2-[4-(2-[(4-aminophenyl)methylcarbobylamino]ethylaminocarbonyl)ethyl)phenyl]ethylamino-5'-N-ethylcarboxamidoadenosine ([^3 H]PAPA-APEC), and [^3 H]-labeled [2-(4-(2-carboxyethyl)phenylethyamino)5'-N-ethylcarboxamidoadenosine ([^3 H]CGS21680). Receptor binding was initiated by the addition of membrane preparations in an amount equivalent to 20-100 μg protein, and carried out at 37° C. for 1 hr. Nonspecific binding was determined in the presence of 10 μM R-N^6 -phenyl-2-propyladenosine (R-PIA). After incubation, samples were filtered through glass fiber filters (Schleicher and Schuell #32) and washed three times with 4 ml ice-cold 10 mM TrisoHCl (pH 7.4). Radioactivity retained on the filters were counted using a Beckman LS6800 scintillation counter (Beckman Instruments, Palo Alto, Calif.). […] A LIGAND computer program was used for data analysis and curve fitting (Munson & Rodband, 1980, Anal. Biochem. 107: 220-225).
The A3 receptor was then characterized using competition assays between [^125 I]APNEA A3 receptor binding versus a series of other adenosine receptor ligands. Labeled APNEA was present in these assays at 0.5 nM; unlabled competitors were present at varying concentrations as shown in FIG. 4A.

A3 adenosine receptor [2] = target: T1, A3 adenosine receptor; experiment: cell-based; type: cell-based
Procedure: The concentrations of adenosine agonists used are 100 nM and the concentration of forskolin is 1 μM. Values are obtained from triplicate plates and shown as mean ±S.E.
The cell were not or pretreated with 100 ng/ml pertussis toxin for 18 hours. The concentration of forskolin and adenosine agonists used are as in FIG. 5.
It is known that the A 1 adenosine receptor inhibits adenylate cyclase activity and the A2 adenosine receptor stimulates adenylate cyclase respectively (Stiles, ibid.; Williams, ibid.).
(§2) Cells were grown to about 80% confluence in 150 mm dishes, washed twice with Ca^++ and Mg^++ -free PBS buffer and detached from plates with PBS buffer containing 0.02% EDTA. Cells were collected by centrifugation at 800 rpm (xx g) for 10 min at 4° C. and resuspended in an appropriate volume of KRH buffer [140 mM NaCl, 5 mM KCl , 2 mM CaCl2, 1.2 mM MgSO4, 1.2 mM KH2 PO4, 6 mM glucose, 25 mM Hepes-NaOH (pH 7.4)]. The cells were washed once with KRH buffer and resuspended in KRH buffer at a concentration of 10^7 cells/ml. Each of 100 μl aliquots of this cell suspension were added to a glass tube containing 100 μl KRH+200 μM Ro 20-1724 and incubated at 37° C. for 10 min. Prewarmed 200 μl KRH containing 200 μm Ro 20-1724 and test drugs were then added to the cells and mixed. After incubation at 37° C. for 20 min, 400 μl 10.5 mM NaAc (pH 6.2) were added and the glass tubes transferred to a boiling water bath. The incubated cell suspension were boiled for 20 min, and the tubes were then cooled to room temperature and centrifuged at 3000 rpm (xx g) for 15 min.
For experiments using pertussis toxin pretreatment, aseptic pertussis toxin (Sigma Chemical Co., St. Louis, Mo.) was dissolved in sterile water and added to the medium to a final concentration of 100 ng/ml. Toxin treatment was maintained for approximately 18 hours. The dishes were rinsed once with media immediately prior to the addition of adenosine receptor ligands and processed as described above.

A3 adenosine receptor [3] = target: T1, A3 adenosine receptor; type: cell-based; conditions: 1 μM forskolin; 100 μM adenosine
A3 adenosine receptor [4] = target: T1, A3 adenosine receptor; experiment: Direct radioligand binding / Scatchard analysis, stably transfected CHO cell membranes; conditions: radiolabeled ligands, stably transfected CHO membranes
From the text: FIG. 3 illustrates a Scatchard plot of radioligand binding assays for the A3 adenosine receptor performed with the adenosine radioligand [^125 I]APEA and membrane preparations from stably transfected CHO cells.
The entire coding region of the A3 cDNA insert from R226 was excised from pGem226 and subcloned into either the HindIII/XbaI sites of an RC-RSV expression vector (Invitrogene, San Diego, Calif.) or the HindIII/SmaI sites of pBC12BI (Cullen, 1987, Meth. Enzym. 152: 684-704). The resulting plasmids were called Rc-RSV226 and pBC226 respectively. For transient expression in COS-7 cells, pBC226 plasmid DNA was prepared in large-scale through one cycle of CsCl gradient ultracentrifugation and 45 μg pBC226 DNA were transfected into each 150mm dish of COS-7 cells according to the method of Chen and Okayama (1987, Molec. Cell Biol. 7: 2745-2752). For stable expression in CHO cells, 1 μg Rc-RSV226 plasmid DNA isolated from a small-scale preparation was purified using the Prep-A-Gene kit (Bio-Rad) and transfected into CHO cells by the CaPO4 method (Graham and van der Eb, 1973, Virol. 52: 456-463). After transfection, cells were cultured in DMEM (COS-7 cells) or F-12 (CHO cells) media supplemented with 10% fetal calf serum in a 3% CO2 atmosphere at 37° C. For stable transfection, selection was performed with neomycin (G418; SOURCE) at a concentration of 700 μg/ml; selection was started 72 hr after transfection and continued for 3 weeks. Cell colonies were screened for expression of the A3 adenosine receptor from the R226 expression vectors described herein by Northern blot hybridization of total cellular RNA with random-primed PCR226 probe (Maniatis et al., ibid.).
as §1
Radioligand binding assays were carried out in duplicate in 500 μl of a solution containing (at final concentrations) 50 mM Tris-HCl (pH 7.4), 5 mM MgCl2, 1 mM EDTA, 0.025 % ascorbic acid, radioligands, and appropriate drugs. […] ([aH]XAC), [^3 H]-labeled 2-[4-(2-[(4-aminophenyl)methylcarbobylamino]ethylaminocarbonyl)ethyl)phenyl]ethylamino-5'-N-ethylcarboxamidoadenosine ([^3 H]PAPA-APEC), and [^3 H]-labeled [2-(4-(2-carboxyethyl)phenylethyamino)5'-N-ethylcarboxamidoadenosine ([^3 H]CGS21680). Receptor binding was initiated by the addition of membrane preparations in an amount equivalent to 20-100 μg protein, and carried out at 37° C. for 1 hr.

cellular cAMP levels = experiment: Cellular cAMP levels after forskolin in wild type and stably transfected CHO cells; type: cell-based, Chinese hamster; conditions: Cricetulus griseus, 20 min, read-out: increase in cellular cAMP levels, 1 μM forskolin
Procedure: as §2

Nc1ncnc2c1ncn2[C@@H]1O[C@H](CO)[C@@H](O)[C@H]1O [Adenosine, adenosine]
affinity relative to nucleotides (A3 adenosine receptor [1]): much higher affinity than ATP, ADP, AMP, cAMP or UTP | IC50 (A3 adenosine receptor [1]; Table I and text, 0.5 nM [125I]APNEA): 30 ± 4 µM | pharmacological profile of inhibition of [125I]APNEA binding (A3 adenosine receptor [1]; rank order): R-PIA=NECA>S-PIA>adenosine>ATP=ADP | EC50 (A3 adenosine receptor [2]; Table II): 6.5 ± 2.1 µM | maximal effect on cAMP production (A3 adenosine receptor [2]; at the concentrations tested): does not reach its maximal effect at the concentrations tested | inhibition of forskolin-stimulated cAMP accumulation (A3 adenosine receptor [3]): 20-50%

CCNC(=O)[C@H]1O[C@@H](n2cnc3c(N)nc(NCCc4ccc(CCC(=O)O)cc4)nc32)[C@H](O)[C@@H]1O [CGS21680]
specific, high affinity binding to the A3 receptor (A3 adenosine receptor [4]): The only adenosine receptor ligand to show specific, high affinity binding to the A3 receptor was the A1 selective agonist [^125 I]APNEA | EC50 (A3 adenosine receptor [2]): 0.144 ± 0.034 µM | inhibition of forskolin-stimulated cAMP accumulation (A3 adenosine receptor [2]; 1 μM forskolin, 100 nM agonist): 20-50% | maximum inhibition of cAMP production (A3 adenosine receptor [2]; of control values): 40-50%

CCCn1c(=O)c2[nH]c(C3CCCC3)nc2n(CCC)c1=O [DPCPX, 1,3-dipropyl-8-cyclopentylxanthine]
specific, high affinity binding to the A3 receptor (A3 adenosine receptor [4]): The only adenosine receptor ligand to show specific, high affinity binding to the A3 receptor was the A1 selective agonist [^125 I]APNEA | specific, high affinity binding to the A3 receptor (A3 adenosine receptor [4]; listed as [^3 H]DPCPX): does not bind to the A3 adenosine receptor | ability to compete with [125I]APNEA for A3 receptor binding (A3 adenosine receptor [1]): none of the methylxanthines tested were capable of competing with labeled APNEA | reversal of inhibitory effect of NECA on forskolin-stimulated cAMP production (A3 adenosine receptor [2]; 10 nM DPCPX): could not be reversed

CCNC(=O)[C@H]1O[C@@H](n2cnc3c(N)nc(NCCc4ccc(CCC(=O)NCCNC(=O)Cc5ccc(N)cc5)cc4)nc32)[C@H](O)[C@@H]1O [PAPA-APEC]
specific, high affinity binding to the A3 receptor (A3 adenosine receptor [4]): The only adenosine receptor ligand to show specific, high affinity binding to the A3 receptor was the A1 selective agonist [^125 I]APNEA

CCCn1c(=O)c2[nH]c(-c3ccc(OCC(=O)NCCN)cc3)nc2n(CCC)c1=O [XAC]
specific, high affinity binding to the A3 receptor (A3 adenosine receptor [4]): The only adenosine receptor ligand to show specific, high affinity binding to the A3 receptor was the A1 selective agonist [^125 I]APNEA | ability to compete with [125I]APNEA for A3 receptor binding (A3 adenosine receptor [1]): none of the methylxanthines tested were capable of competing with labeled APNEA

C=C[C@@]1(C)CC(=O)[C@]2(O)[C@@]3(C)[C@@H](O)CCC(C)(C)[C@@H]3[C@H](O)[C@H](OC(C)=O)[C@@]2(C)O1 [forskolin]
fold induction at 1 µM (cellular cAMP levels): 15
